Results as given in ChEMBL document CHEMBL3217548, “Biological activity and DNA binding studies of 2-substituted benzimidazo[1,2-a]quinolines bearing different amino side chains” (Medchemcomm, 2013).
Activity calls are given as the source filed them. No cut-off for these calls is given here.

Legend:
[1] = system: Calf thymus DNA; test: Binding affinity to calf thymus DNA assessed as bathochromic shift at 20 uM by UV/visible spectrophotometry; format: nucleic-acid assay; conditions: Bos taurus
[2] = system: Calf thymus DNA; test: Binding affinity to calf thymus DNA assessed as hypochromic shift at 20 uM by UV/visible spectrophotometry; format: nucleic-acid assay; conditions: Bos taurus
[3] = Binding affinity to DNA (unknown origin) at 1 to 5 uM after 15 mins by DNA footprinting assay
[4] = organism: Homo sapiens; test: Inhibition of human DNA topoisomerase 2 assessed as inhibition of DNA cleavage
[5] = molecular target: T1, DNA topoisomerase 1 (Homo sapiens) (UniProt P11387); test: Inhibition of human DNA topoisomerase 1 assessed as inhibition of DNA cleavage
T1 sequence (whole entry): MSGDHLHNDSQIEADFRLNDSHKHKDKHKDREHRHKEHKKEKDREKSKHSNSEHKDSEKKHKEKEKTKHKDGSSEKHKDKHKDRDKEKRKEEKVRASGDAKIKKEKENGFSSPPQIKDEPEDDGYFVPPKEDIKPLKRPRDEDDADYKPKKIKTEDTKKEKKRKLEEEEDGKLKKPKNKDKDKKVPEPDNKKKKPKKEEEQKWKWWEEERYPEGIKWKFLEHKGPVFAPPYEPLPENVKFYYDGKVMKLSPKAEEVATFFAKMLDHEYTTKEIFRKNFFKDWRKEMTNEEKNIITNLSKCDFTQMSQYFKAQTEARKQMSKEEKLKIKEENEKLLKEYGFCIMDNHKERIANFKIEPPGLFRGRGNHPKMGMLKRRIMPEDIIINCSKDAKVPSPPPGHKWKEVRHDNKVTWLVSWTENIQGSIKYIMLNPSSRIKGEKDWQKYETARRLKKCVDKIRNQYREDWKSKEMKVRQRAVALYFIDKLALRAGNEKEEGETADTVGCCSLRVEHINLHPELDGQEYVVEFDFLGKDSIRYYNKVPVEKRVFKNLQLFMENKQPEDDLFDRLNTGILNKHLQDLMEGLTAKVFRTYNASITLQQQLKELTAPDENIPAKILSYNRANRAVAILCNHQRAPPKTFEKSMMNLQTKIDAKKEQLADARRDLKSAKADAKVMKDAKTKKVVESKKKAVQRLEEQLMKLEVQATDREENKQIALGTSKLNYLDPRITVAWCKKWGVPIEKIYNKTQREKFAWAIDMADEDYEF

[6] = system: Escherichia coli; test: Binding affinity to Escherichia coli pUC19 plasmid assessed as nicked DNA at 0.1 to 5 uM by ethidium bromide staining-based agarose gel electrophoresis
[7] = system: Escherichia coli; test: Binding affinity to Escherichia coli pUC19 plasmid assessed as induction of topoisomerase1-mediated DNA relaxation at 2 uM incubated for 45 mins prior to topoisomerase1 addition by agarose gel electrophoresis
[8] = system: Calf thymus DNA; test: Binding affinity to calf thymus DNA assessed as DNA intercalation at 1 to 50 uM by circular dichroism analysis; format: nucleic-acid assay; conditions: Bos taurus
[9] = system: Calf thymus DNA; test: Binding affinity to calf thymus DNA assessed as change in melting temperature at 0.5 drug/DNA ratio by spectrophotometry; format: nucleic-acid assay; conditions: Bos taurus
[10] = Drug uptake in human H460 cell perinuclear region at 10 uM after 2 hrs by fluorescence microscopy; format: ADME, cell-based; conditions: h460, 2 h
[11] = Drug uptake in human H460 cell cytoplasm at 10 uM after 2 hrs by fluorescence microscopy; format: ADME, cell-based; conditions: h460, 2 h
[12] = system: HCT-116; test: Cell cycle arrest in human HCT116 cells assessed as accumulation at G2/M phase at 5 uM after 48 hrs by propidium iodide staining-based FACS analysis (reference value: 31 +/- 0.1 %); format: functional
[13] = system: HCT-116; test: Cell cycle arrest in human HCT116 cells assessed as accumulation at G2/M phase at 0.5 uM after 48 hrs by propidium iodide staining-based FACS analysis (reference value: 31 +/- 0.1 %); format: functional
[14] = system: HCT-116; test: Cell cycle arrest in human HCT116 cells assessed as accumulation at G2/M phase at 5 uM after 24 hrs by propidium iodide staining-based FACS analysis (reference value: 28 +/- 1 %); format: functional
[15] = system: HCT-116; test: Cell cycle arrest in human HCT116 cells assessed as accumulation at G2/M phase at 0.5 uM after 24 hrs by propidium iodide staining-based FACS analysis (reference value: 28 +/- 1 %); format: functional
[16] = system: HCT-116; test: Cell cycle arrest in human HCT116 cells assessed as accumulation at S phase at 5 uM after 48 hrs by propidium iodide staining-based FACS analysis (reference value: 32 +/- 1 %); format: functional
[17] = system: HCT-116; test: Cell cycle arrest in human HCT116 cells assessed as accumulation at S phase at 0.5 uM after 48 hrs by propidium iodide staining-based FACS analysis (reference value: 32 +/- 1 %); format: functional
[18] = system: HCT-116; test: Cell cycle arrest in human HCT116 cells assessed as accumulation at S phase at 5 uM after 24 hrs by propidium iodide staining-based FACS analysis (reference value: 39 +/- 0.2 %); format: functional
[19] = system: HCT-116; test: Cell cycle arrest in human HCT116 cells assessed as accumulation at S phase at 0.5 uM after 24 hrs by propidium iodide staining-based FACS analysis (reference value: 39 +/- 0.2 %); format: functional
[20] = system: HCT-116; test: Cell cycle arrest in human HCT116 cells assessed as accumulation at G1 phase at 5 uM after 48 hrs by propidium iodide staining-based FACS analysis (reference value: 37 +/- 2 %); format: functional
[21] = system: HCT-116; test: Cell cycle arrest in human HCT116 cells assessed as accumulation at G1 phase at 0.5 uM after 48 hrs by propidium iodide staining-based FACS analysis (reference value: 37 +/- 2 %); format: functional
[22] = system: HCT-116; test: Cell cycle arrest in human HCT116 cells assessed as accumulation at G1 phase at 5 uM after 24 hrs by propidium iodide staining-based FACS analysis (reference value: 33 +/- 1 %); format: functional
[23] = system: HCT-116; test: Cell cycle arrest in human HCT116 cells assessed as accumulation at G1 phase at 0.5 uM after 24 hrs by propidium iodide staining-based FACS analysis (reference value: 33 +/- 1 %); format: functional
[24] = system: HCT-116; test: Cell cycle arrest in human HCT116 cells assessed as accumulation at subG0/G1 phase at 5 uM after 48 hrs by propidium iodide staining-based FACS analysis (reference value: 4 +/- 1 %); format: functional
[25] = system: HCT-116; test: Cell cycle arrest in human HCT116 cells assessed as accumulation at subG0/G1 phase at 0.5 uM after 48 hrs by propidium iodide staining-based FACS analysis (reference value: 4 +/- 1 %); format: functional
[26] = system: HCT-116; test: Cell cycle arrest in human HCT116 cells assessed as accumulation at subG0/G1 phase at 5 uM after 24 hrs by propidium iodide staining-based FACS analysis (reference value: 4 +/- 1 %); format: functional
[27] = system: HCT-116; test: Cell cycle arrest in human HCT116 cells assessed as accumulation at subG0/G1 phase at 0.5 uM after 24 hrs by propidium iodide staining-based FACS analysis (reference value: 4 +/- 1 %); format: functional
[28] = system: MCF7; test: Cytotoxicity against human MCF7 cells after 72 hrs by MTT assay; format: functional, cell-based; conditions: MCF7, 72 h
[29] = Cytotoxicity against human H460 cells after 72 hrs by MTT assay; format: functional, cell-based; conditions: NCI-H460, 72 h
[30] = system: HCT-116; test: Cytotoxicity against human HCT116 cells after 72 hrs by MTT assay; format: functional, cell-based; conditions: HCT-116, 72 h
[31] = system: DNA; test: Induction of DNA damage in plasmid DNA in E. coli S30 cell-free system assessed as inhibition of EGFP translation at 50 uM after 1 hr by fluorescence assay

C[N+]1(C)CCN(c2ccc3cc(C#N)c4nc5ccccc5n4c3c2)CC1.[I-]
Activity [1]: Active | Activity [2]: Active | Activity [3]: Active | Activity [4]: inactive | Activity [5]: inactive | Activity [6]: Active | Activity [7]: Active | Activity [8]: Active | ΔTm [9]: 15.4 °C | Drug uptake [10]: Active | Drug uptake [11]: Active | Activity [12]: 28% | Activity [13]: 31% | Activity [14]: 29% | Activity [15]: 32% | Activity [16]: 29% | Activity [17]: 32% | Activity [18]: 33% | Activity [19]: 36% | Activity [20]: 43% | Activity [21]: 37% | Activity [22]: 38% | Activity [23]: 32% | Activity [24]: 5% | Activity [25]: 6% | Activity [26]: 7% | Activity [27]: 6% | IC50 [28]: 2.4 µM | IC50 [29]: 2 µM | IC50 [30]: 0.6 µM | inhibition at 50 µM [31]: 45%
